Measurements from patent US8697869B2, “3-(heteroaryl-amino)-1,2,3,4-tetrahydro-9H-carbazole derivatives and their use as prostaglandin D2 receptor modulators” (Actelion Pharmaceuticals Ltd., priority 2010, dated 2014).

Experiments:
hCRTH2 receptor [1] = target: T1, hCRTH2 receptor (Homo sapiens (Human), UniProt Q9Y5Y4); experiment: hCRTH2 receptor membranes radioligand displacement assay (3H-PGD2); conditions: 3H-PGD2 2.5 nM, HEK293-hCRTH2 membranes, Binding-Buffer with 0.1% BSA
Description: Biological Assays: Preparation of hCRTH2 Receptor Membranes and Radioligand Displacement Assay:
(§1) First, recombinant HEK293-hCRTH2 cells were detached from culture plates into 5 ml buffer A/plate (Buffer A: 5 mM Tris, 1 mM MgCl2-6H2O pH=7.4) using a rubber policeman. Cells were then transferred into centrifugation tubes and centrifuged for 5 min at 400 g. The cell pellet was resuspended in the same buffer and tubes were frozen at −80° C. Cells were thawed and membrane fragments were generated by homogenization using a polytron homogenizer (30 seconds). The membrane fragments were then centrifuged at 3000 g for 20 minutes and resuspended in buffer C (Buffer C: 75 mM Tris, 25 mM MgCl2, 250 mM Saccharose pH 7.4). Aliquots of membrane fragements were stored at −20° C.
(§2) Binding assay was performed in a final assay volume of 250 μl. First, 25 μl of test compound, previously diluted in Binding-Buffer (Binding-Buffer: 50 mM Tris-Base, 100 mM NaCl, 1 mM EDTA, 0.1% BSA (protease free), 0.01% NaN3, 10 mM MnCl2 pH 7.0) was placed into each well. After addition of 75 μl Binding-Buffer, 50 μl of the radioligand ^3H-PGD2 (at 2.5 nM (220.000 dpm/well) from ANAWA ART0662) was added to each well. Binding assay was started by addition of 100 μl CRTH2 membrane fragments, reaching a final concentration of 20 μg/well. For non-specific binding, PGD2 was added to the reaction mixture to […] final concentration. This assay mix was incubated for 90 minutes at room temperature and then filtered through a GF/C filter 96-well plate which was pre-soaked for 3 hours in 0.5% polyethyleneimine (PEI). The filter-wells were washed three times with ice cold Binding-Buffer. Then, 40 μl of Microscint-40 (Packard) was added to each well and the retained radioactivity quantified in a Topcount (Packard).

hCRTH2 receptor [2] = target: T1, hCRTH2 receptor; experiment: Radioligand displacement assay in presence of human serum albumin (HSA); conditions: 3H-PGD2 2.5 nM, Binding-Buffer with 0.5% HSA instead of 0.1% BSA
Description: as §1, §2
Radioligand Displacement Assay-Human Serum Albumin (HSA):
Radioligand displacement assay in presence of human serum albumin (HSA) was performed as described above, with following modifications. Binding-Buffer-HSA: Binding-buffer+0.5% Sigma Albumin from Human serum A1887 (instead of 0.1% BSA). A volume of 25 μl test compound, previously diluted in Binding-Buffer-HSA was placed into each well. After addition of 75 μl Binding-Buffer-HSA, 50 μl of ^3H-PGD2 (at 2.5 nM (220.000 dpm/well) from ANAWA ART0662) was added to each well. Remaining protocol was identical as described above.

T1 sequence (Q9Y5Y4 whole entry): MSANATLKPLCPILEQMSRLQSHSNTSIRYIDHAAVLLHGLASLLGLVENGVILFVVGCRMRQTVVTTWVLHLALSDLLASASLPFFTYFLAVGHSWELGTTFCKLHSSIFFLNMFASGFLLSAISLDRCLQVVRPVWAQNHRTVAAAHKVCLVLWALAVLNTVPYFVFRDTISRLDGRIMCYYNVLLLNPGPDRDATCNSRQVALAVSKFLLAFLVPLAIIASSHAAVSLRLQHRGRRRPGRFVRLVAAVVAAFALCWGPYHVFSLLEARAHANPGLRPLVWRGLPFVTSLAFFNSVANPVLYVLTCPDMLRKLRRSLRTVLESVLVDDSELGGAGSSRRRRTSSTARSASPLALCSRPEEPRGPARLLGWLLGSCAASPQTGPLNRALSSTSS

SMILES | IC50 (hCRTH2 receptor [1]) [µM] | IC50 (hCRTH2 receptor [2]) [µM]
O=C(O)Cn1c2c(c3cc(F)ccc31)C[C@H](Nc1ncc(F)cn1)CC2 [Example 2, (3R)-2-(6-fluoro-3-((5-fluoropyrimidin-2-yl)amino)-3,4-dihydro-1H-carbazol-9-(2H)-yl)acetic acid] | 0.027 | –
O=C(O)Cn1c2c(c3cc(F)ccc31)C[C@H](Nc1ncc(C(F)(F)F)cn1)CC2 [Example 5, (3R)-2-(6-fluoro-3-((5-(trifluoromethyl)pyrimidin-2-yl)amino)-3,4-dihydro-1H-carbazol-9-(2H)-yl)acetic acid] | 0.027 | –
O=C(O)Cn1c2c(c3cc(F)ccc31)C[C@H](Nc1nccc(C(F)(F)F)n1)CC2 [Example 6, (3R)-2-(6-fluoro-3-((4-(trifluoromethyl)pyrimidin-2-yl)amino)-3,4-dihydro-1H-carbazol-9-(2H)-yl)acetic acid] | 0.046 | –
CN(c1ncc(F)cn1)[C@@H]1CCc2c(c3cc(F)ccc3n2CC(=O)O)C1 [Example 8, (3R)-2-(6-fluoro-3-((5-fluoropyrimidin-2-yl)(methyl)amino)-3,4-dihydro-1H-carbazol-9(2H)-yl)acetic acid] | 0.042 | –
CN(c1ncc(Cl)cn1)[C@@H]1CCc2c(c3cc(F)ccc3n2CC(=O)O)C1 [Example 10, (3R)-2-(3-((5-chloropyrimidin-2-yl)(methyl)amino)-6-fluoro-3,4-dihydro-1H-carbazol-9(2H)-yl)acetic acid] | 0.058 | –
CN(c1ncc(C(F)(F)F)cn1)[C@@H]1CCc2c(c3cc(F)ccc3n2CC(=O)O)C1 [Example 12, (3R)-2-(6-fluoro-3-(methyl(5-(trifluoromethyl)pyrimidin-2-yl)amino)-3,4-dihydro-1H-carbazol-9(2H)-yl)acetic acid] | 0.141 | –
CN(c1nccc(C(F)(F)F)n1)[C@H]1CCc2c(c3cc(F)ccc3n2CC(=O)O)C1 [Example 13, (3S)-2-(6-fluoro-3-(methyl(4-(trifluoromethyl)pyrimidin-2-yl)amino)-3,4-dihydro-1H-carbazol-9(2H)-yl)acetic acid] | 0.012 | 0.769
CN(c1nccc(C(F)(F)F)n1)[C@@H]1CCc2c(c3cc(F)ccc3n2CC(=O)O)C1 [Example 14, (3R)-2-(6-fluoro-3-(methyl(4-(trifluoromethyl)pyrimidin-2-yl)amino)-3,4-dihydro-1H-carbazol-9(2H)-yl)acetic acid] | 0.067 | –
Cc1cc(C)nc(N(C)[C@H]2CCc3c(c4cc(F)ccc4n3CC(=O)O)C2)n1 [Example 16, (3S)-2-(3-((4,6-dimethylpyrimidin-2-yl)(methyl)amino)-6-fluoro-3,4-dihydro-1H-carbazol-9(2H)-yl)acetic acid] | 0.125 | –
Cc1ccnc(N(C)[C@H]2CCc3c(c4cc(F)ccc4n3CC(=O)O)C2)n1 [Example 17, (3S)-2-(6-fluoro-3-(methyl(4-methylpyrimidin-2-yl)amino)-3,4-dihydro-1H-carbazol-9(2H)-yl)acetic acid] | 0.107 | –
CN(c1nc2ccccc2s1)[C@H]1CCc2c(c3cc(F)ccc3n2CC(=O)O)C1 [Example 20, (3S)-2-(3-(benzo[d]thiazol-2-yl(methyl)amino)-6-fluoro-3,4-dihydro-1H-carbazol-9(2H)-yl)acetic acid] | 0.0081 | 0.04
CN(c1ncnc2ccccc12)[C@H]1CCc2c(c3cc(F)ccc3n2CC(=O)O)C1 [Example 21, (3S)-2-(6-fluoro-3-(methyl(quinazolin-4-yl)amino)-3,4-dihydro-1H-carbazol-9(2H)-yl)acetic acid] | 0.026 | –
CN(c1nc(C(F)(F)F)nc2ccccc12)[C@H]1CCc2c(c3cc(F)ccc3n2CC(=O)O)C1 [Example 22, (3S)-2-(6-fluoro-3-(methyl(2-(trifluoromethyl)quinazolin-4-yl)amino)-3,4-dihydro-1H-carbazol-9(2H)-yl)acetic acid] | 0.016 | 0.38
Cc1nc(N(C)[C@H]2CCc3c(c4cc(F)ccc4n3CC(=O)O)C2)c2ccccc2n1 [Example 23, (3S)-2-(6-fluoro-3-(methyl(2-methylquinazolin-4-yl)amino)-3,4-dihydro-1H-carbazol-9(2H)-yl)acetic acid] | 0.055 | –
CC(C)N(c1ncc(Cl)cn1)[C@H]1CCc2c(c3cc(F)ccc3n2CC(=O)O)C1 [Example 26, (3S)-2-(3-((5-chloropyrimidin-2-yl)(isopropyl)amino)-6-fluoro-3,4-dihydro-1H-carbazol-9(2H)-yl)acetic acid] | 0.809 | –
CN(c1ncc(-c2ccccc2)cn1)[C@H]1CCc2c(c3cc(F)ccc3n2CC(=O)O)C1 [Example 30, (3S)-2-(6-fluoro-3-(methyl(5-phenylpyrimidin-2-yl)amino)-3,4-dihydro-1H-carbazol-9(2H)-yl)acetic acid] | 0.011 | 0.041
COc1cnc(N(C)[C@H]2CCc3c(c4cc(F)ccc4n3CC(=O)O)C2)nc1 [Example 31, (3S)-2-(6-fluoro-3-((5-methoxypyrimidin-2-yl)(methyl)amino)-3,4-dihydro-1H-carbazol-9(2H)-yl)acetic acid] | 0.0072 | 0.043
CN(c1ccc(C(F)(F)F)cn1)[C@H]1CCc2c(c3cc(F)ccc3n2CC(=O)O)C1 [Example 35, (3S)-2-(6-fluoro-3-(methyl(5-(trifluoromethyl)pyridin-2-yl)amino)-3,4-dihydro-1H-carbazol-9(2H)-yl)acetic acid] | 0.0091 | 0.02
CN(c1ccc(F)cn1)[C@H]1CCc2c(c3cc(F)ccc3n2CC(=O)O)C1 [Example 36, (3S)-2-(6-fluoro-3-((5-fluoropyridin-2-yl)(methyl)amino)-3,4-dihydro-1H-carbazol-9(2H)-yl)acetic acid] | 0.0098 | 0.008

Results, then the compound that gave them:

IC50 (hCRTH2 receptor [1]) [µM] | IC50 (hCRTH2 receptor [2]) [µM] | SMILES
0.0052 | 0.013 | CN(c1ccc(Cl)cn1)[C@H]1CCc2c(c3cc(F)ccc3n2CC(=O)O)C1 [Example 37, (3S)-2-(3-((5-chloropyridin-2-yl)(methyl)amino)-6-fluoro-3,4-dihydro-1H-carbazol-9(2H)-yl)acetic acid]
0.015 | 0.068 | O=C(O)Cn1c2c(c3cc(F)ccc31)C[C@@H](N(CC(F)F)c1ncc(Cl)cn1)CC2 [Example 41, (3S)-2-(3-((5-chloropyrimidin-2-yl)(2,2-difluoroethyl)amino)-6-fluoro-3,4-dihydro-1H-carbazol-9(2H)-yl)acetic acid]
0.011 | 0.176 | CN(c1cnc2ccccc2n1)[C@H]1CCc2c(c3cc(F)ccc3n2CC(=O)O)C1 [Example 44, (3S)-2-(6-fluoro-3-(methyl(quinoxalin-2-yl)amino)-3,4-dihydro-1H-carbazol-9(2H)-yl)acetic acid]
0.073 | – | CN(c1nc(C(C)(C)C)cs1)C1CCc2c(c3cc(F)ccc3n2CC(=O)O)C1 (stereo not shown) [Example 46, 2-(3-((4-(tert-butyl)thiazol-2-yl)(methyl)amino)-6-fluoro-3,4-dihydro-1H-carbazol-9(2H)-yl)acetic acid]
0.014 | 0.402 | CN(c1nc(C(F)(F)F)cs1)C1CCc2c(c3cc(F)ccc3n2CC(=O)O)C1 (stereo not shown) [Example 47, 2-(6-fluoro-3-(methyl(4-(trifluoromethyl)thiazol-2-yl)amino)-3,4-dihydro-1H-carbazol-9(2H)-yl)acetic acid]
0.072 | – | CN(c1cc(C(C)(C)C)on1)C1CCc2c(c3cc(F)ccc3n2CC(=O)O)C1 (stereo not shown) [Example 48, 2-(3-((5-(tert-butyl)isoxazol-3-yl)(methyl)amino)-6-fluoro-3,4-dihydro-1H-carbazol-9(2H)-yl)acetic acid]
0.037 | – | CN(c1ccn(C)n1)C1CCc2c(c3cc(F)ccc3n2CC(=O)O)C1 (stereo not shown) [Example 49, 2-(6-fluoro-3-(methyl(1-methyl-1H-pyrazol-3-yl)amino)-3,4-dihydro-1H-carbazol-9(2H)-yl)acetic acid]
0.127 | – | Cc1nnc(N(C)C2CCc3c(c4cc(F)ccc4n3CC(=O)O)C2)s1 (stereo not shown) [Example 50, 2-(6-fluoro-3-(methyl(5-methyl-1,3,4-thiadiazol-2-yl)amino)-3,4-dihydro-1H-carbazol-9(2H)-yl)acetic acid]
0.0064 | 0.053 | CN(c1ccon1)C1CCc2c(c3cc(F)ccc3n2CC(=O)O)C1 (stereo not shown) [Example 51, 2-(6-fluoro-3-(isoxazol-3-yl(methyl)amino)-3,4-dihydro-1H-carbazol-9(2H)-yl)acetic acid]
